Experimental data: patent US12545654B2 (STEMSYNERGY THERAPEUTICS, INC., priority 2020, dated 2026)

Tested on: N-myc protein
Test: In-cell immunostaining assay for decrease of N-myc protein level in neuroblastoma cells
Format: cell-based
Conditions: human neuroblastoma cell lines (Kelly, IMR32, SK-N-BE(2)); treated overnight or up to 3 days; N-myc signal normalized over total protein; read-out: Activity (EC50 for decreasing N-myc protein level)
Method: Human neuroblastoma cell lines were obtained from either Millipore Sigma, St. Louis, MO (Kelly cells) or American Type Culture Collection, Manassas, VA (IMR32 and SK-N-BE(2) cells). Cells were cultured in RPMI1640 medium (Corning, New York, NY), supplemented with 10% fetal bovine serum, 100 unit/mL penicillin and 100 μg/mL streptomycin (Corning, New York, NY) at 37 degree Celsius with 5% CO2 in air atmosphere. Cells cultured in flat clear bottom, black 96-well plates (Corning, New York, NY) were treated with different concentrations of a compound of the invention, which was dissolved in the culture media (200 μL/well), overnight or up to 3 days. Cells were fixed with 4% paraformaldehyde (in Phosphate-Buffered Saline or PBS, 100 μL/well) for 30 minutes at room temperature. Cells were briefly washed three times with PBS afterwards, and then treated with PBS containing 0.1% Triton X-100 (100 μL/well) for 30 minutes at room temperature. For […], cells were further treated with PBS containing 0.01% IRDye 700DX NHS Ester (LI-COR Biosciences, Lincoln, NE. 100 μL/well) for 30 minutes at room temperature. Cells were again washed three times with PBS, and then treated with a Tris-buffered saline solution with 0.1% Tween 20 (TBST) and 5% non-fat milk (50 μL/well) for 1 hour at room temperature. Cells were then treated with TBST with 5% non-fat milk (50 μL/well) containing a mouse anti N-Myc antibody (Clone B8.4.B, 1:500 dilution, Santa Cruz Biotechnology, Santa Cruz, CA), or a combination of a rabbit anti-Histone H3 (phospho S10) antibody (Clone EPR17246, 1:10000 dilution, abcam, Cambridge, MA) and a mouse anti-Histone H3 antibody (Clone 1G1, 1:250 dilution, Santa Cruz Biotechnology, Santa Cruz, CA) overnight at 4 degree Celsius in the dark. Cells were washed three times with TBST, and then treated with TBST with 5% non-fat milk (50 μL/well) containing an IRDye 800CW donkey anti-mouse IgG antibody (1:1000 dilution, LI-COR Biosciences, Lincoln, NE) for N-myc staining, or IRDye® 800CW donkey anti-rabbit IgG and IRDye 680RD donkey anti-mouse IgG antibodies (1:1000 dilution, LI-COR Biosciences, Lincoln, NE) for Histone H3 (phospho S10) and Histone H3 staining, incubated for 1 hour at room temperature in the dark. Cells were then washed four times with TBST and the plate was scanned using an Odyssey 9120 Imaging System (LI-COR Biosciences, Lincoln, NE). Signals for N-myc, total protein, Histone H3 (phospho S10), and Histone H3 were obtained from the images using the ImageStudio software (Version 4.0.21, LI-COR Biosciences, Lincoln, NE). Normalized signals for N-myc (over total protein), and Histone H3 (phospho S10) (over Histone H3) were plotted in Prism 7 software (GraphPad Software, San Diego, CA). A four-parameter dose-response curve was fitted using a variable slope model and the EC50 was calculated in Prism 7 software (GraphPad Software, San Diego, CA).

Compound | EC50 [nM]
Cc1nc(NC(=O)C2(C(=O)Nc3cc(Cl)cc(C(F)(F)F)c3)CC2)sc1C(=O)Nc1cc(C(F)(F)F)ccc1Cl [SSTA-0251, N-(3-chloro-5-(trifluoromethyl)phenyl)-N-(5-((2-chloro-5-(trifluoromethyl)phenyl)carbamoyl)-4-methylthiazol-2-yl)cyclopropane-1,1-dicarboxamide] | 250 to 1000
Cc1nc(NC(=O)C2(C(=O)Nc3cc(F)ccn3)CC2)sc1C(=O)Nc1cc(C(F)(F)F)ccc1Cl [SSTA-0252, N-(5-((2-chloro-5-(trifluoromethyl)phenyl)carbamoyl)-4-methylthiazol-2-yl)-N-(4-fluoropyridin-2-yl)cyclopropane-1,1-dicarboxamide] | > 1000
COCc1nc(NC(=O)C2(C(=O)Nc3ccc(Cl)c(F)c3)CC2)sc1C(=O)Nc1cc(C(F)(F)F)ccc1Cl [SSTA-0262, N-(4-chloro-3-fluorophenyl)-N-(5-((2-chloro-5-(trifluoromethyl)phenyl)carbamoyl)-4-(methoxymethyl)thiazol-2-yl)cyclopropane-1,1-dicarboxamide] | 250 to 1000
O=C(Nc1cc(C(F)(F)F)ccc1Cl)c1sc(NC(=O)C2(C(=O)Nc3cc(F)cc(F)c3)CC2)nc1C1CC1 [SSTA-0263, N-(5-((2-chloro-5-(trifluoromethyl)phenyl)carbamoyl)-4-cyclopropylthiazol-2-yl)-N-(3,5-difluorophenyl)cyclopropane-1,1-dicarboxamide] | < 250
O=C(Nc1cc(C(F)(F)F)ccc1Cl)c1sc(NC(=O)C2(C(=O)Nc3cc(F)cc(C(F)(F)F)c3)CC2)nc1C1CC1 [SSTA-0264, N-(5-((2-chloro-5-(trifluoromethyl)phenyl)carbamoyl)-4-cyclopropylthiazol-2-yl)-N-(3-fluoro-5-(trifluoromethyl)phenyl)cyclopropane-1,1-dicarboxamide] | < 250
N-(5-((2-chloro-5-(trifluoromethyl)phenyl)carbamoyl)-4-methylthiazol-2-yl)-N-(3-fluoro-5-(trifluoromethyl)phenyl)cyclopropane-1,1-dicarboxamide [SSTA-0233] | 250 to 1000
